The target of one assay is T1, Gelatinase (MMP-2) (Homo sapiens, UniProt P08253).
T1 sequence (P08253 110-660): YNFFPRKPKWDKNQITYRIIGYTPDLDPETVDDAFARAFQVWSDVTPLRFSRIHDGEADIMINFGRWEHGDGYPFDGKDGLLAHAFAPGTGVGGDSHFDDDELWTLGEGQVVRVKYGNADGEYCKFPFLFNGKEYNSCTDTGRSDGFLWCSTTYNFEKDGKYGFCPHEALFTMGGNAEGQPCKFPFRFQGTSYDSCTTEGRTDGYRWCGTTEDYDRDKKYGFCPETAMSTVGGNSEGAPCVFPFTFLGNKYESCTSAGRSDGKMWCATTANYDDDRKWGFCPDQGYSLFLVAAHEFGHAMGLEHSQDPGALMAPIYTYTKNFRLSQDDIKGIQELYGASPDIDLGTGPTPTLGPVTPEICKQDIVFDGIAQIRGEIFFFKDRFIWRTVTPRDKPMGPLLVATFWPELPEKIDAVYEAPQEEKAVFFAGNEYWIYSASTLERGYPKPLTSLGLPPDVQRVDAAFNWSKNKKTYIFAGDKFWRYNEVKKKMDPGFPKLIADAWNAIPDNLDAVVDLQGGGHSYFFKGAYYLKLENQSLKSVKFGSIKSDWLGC
In words: Gelatinase (MMP-2) inhibitory activity, fluorogenic peptide substrate assay. The assay is classed as biochemical.

The target of the next assay is Collagenase-3 (MMP-13) (Homo sapiens, UniProt P45452). In words: Collagenase-3 (MMP-13) inhibitory activity, fluorogenic peptide substrate assay. Format: biochemical.
Where [1] appears, read: substrate 5 μM, 60 min preincubation, 20-25° C., read-out: MMP2 IC50.
The mark [2] stands for this setting: recombinant pro-collagenase-3 activated with 1 mM APMA, read-out: MMP13 IC50.

Each structure is given as a SMILES string. Read-outs that look alike come from different tables or passages of the source. A value given as a limit tells only on which side of the number the result lay.

We go through 29 compounds from patent US8841291B2, “Selective hydroxamic acid based MMP-12 and MMP-13 inhibitors” (Novartis AG, priority 2008, dated 2014).

For orientation: IC50 means the concentration that gives 50% inhibition.

Method for Collagenase-3 (MMP-13): (§1) Stock solutions of inhibitors (0.03 mM-3 mM) are also prepared in DMSO. The inhibitors are diluted into the assay solutions, and the controls use an equal volume of DMSO so that the final DMSO concentration from the inhibitor and substrate dilutions in all assays is 1.0%. Assays are performed in an assay buffer (100 mM sodium chloride, 10 μM ZnCl. Sub 2, 10 mM CaCl2, 100 mM Tris-Cl pH7.5, 0.05% Brij-35), containing 1.0% DMSO from the substrate and inhibitor additions. The substrate concentration used in the assays is 5 μM. The assays are carried out at 20-25° C. […] The reaction mixtures are added in duplicate into appropriate wells of a 384-well assay plate. The reaction mixtures are preincubated with the inhibitors for 60 minutes The reactions are started by the addition of MMP substrate, and the fluorescence intensity changes are measured after 60 minutes The apparent enzyme activity in the presence of an inhibitor is then compared with that in the absence of any inhibitor to determine the inhibition effect of the inhibitor.
Collagenase-3 (MMP-13) inhibitory activity is determined as described above. Recombinant pro-collagenase-3 is activated with 1 mM APMA, and stored in the assay buffer after extensive dialysis in the assay buffer.
Method for Gelatinase (MMP-2): as §1

Turning to `CC(C)CCN(C(C)(C)C(=O)NO)S(=O)(=O)c1ccc2ccccc2c1` [Example 65, N-Hydroxy-2-methyl-2-[(3-methyl-butyl)-(naphthalene-2-sulfonyl)-amino]-propionamide], the figures for the IC50 at Gelatinase (MMP-2) (setting [1]) and on Collagenase-3 (MMP-13) (setting [2]) were 2860 nM and 2260 nM, respectively.
The like results for `CC(C)C[C@@H](NS(=O)(=O)c1ccc2ccccc2c1)C(=O)NO` [Example 5, 4-Methyl-2-(naphthalene-2-sulfonylamino)-pentanoic acid hydroxyamide] were, in that order, 57.5 nM and 40.5 nM.
The like results for `O=C(NO)[C@H]1CC=CCN1S(=O)(=O)c1ccc2ccccc2c1` [Example 26, (R)-1-(Naphthalene-2-sulfonyl)-1,2,3,6-tetrahydro-pyridine-2-carboxylic acid hydroxyamide] were, in that order, 18.6 nM and 1.7 nM.
As for `CC(C)CCNc1ccc2ccc(S(=O)(=O)N(CCC(C)C)[C@@H](C(=O)NO)C(C)C)cc2c1` [Example 57, N-Hydroxy-3-methyl-2-{(3-methyl-butyl)-[7-(3-methyl-butylamino)-naphthalene-2-sulfonyl]-amino}-butyramide], the half-maximal inhibitory concentration (IC50) at Gelatinase (MMP-2) (setting [1]) was more than 3000 nM; on Collagenase-3 (MMP-13) (setting [2]) it was 1580 nM.
On to `CC(C)(C)OC(=O)N1CCC([C@@H](NS(=O)(=O)c2ccc3ccccc3c2)C(=O)NO)CC1` [Example 74, 4-[Hydroxycarbamoyl-(naphthalene-2-sulfonylamino)-methyl]-piperidine-1-carboxylic acid tert-butyl ester], for which the IC50 at Gelatinase (MMP-2) (setting [1]) and at Collagenase-3 (MMP-13) (setting [2]) was 0.4 nM in each case.
Turning to `O=C(NO)[C@H]1CCCN1S(=O)(=O)c1ccc2ccccc2c1` (stereo in doubt) [Example 52, 1-(Naphthalene-2-sulfonyl)-pyrrolidine-2-carboxylic acid hydroxyamide], the IC50 at Gelatinase (MMP-2) (setting [1]) is 350 nM; on Collagenase-3 (MMP-13) (setting [2]) it was 293 nM.
Regarding `C=CC1=CCN(S(=O)(=O)c2ccc3ccccc3c2)[C@@H](C(=O)NO)C1` [Example 44, (R)-1-(Naphthalene-2-sulfonyl)-4-vinyl-1,2,3,6-tetrahydro-pyridine-2-carboxylic acid hydroxyamide], the IC50 at Gelatinase (MMP-2) (setting [1]) came to 30.1 nM; at Collagenase-3 (MMP-13) (setting [2]), 1.8 nM.
The like results for `CC(C)[C@H](C(=O)NO)N(CCOc1ccc(Cl)cc1)S(=O)(=O)c1ccc2ccccc2c1` [Example 58, (R)-2-[[2-(4-Chloro-phenoxy)-ethyl]-(naphthalene-2-sulfonyl)-amino]-N-hydroxy-3-methyl-butyramide] were, in that order, 2650 nM and 116 nM.
With `CC(C)[C@H](C(=O)NO)N(CCCc1ccccc1)S(=O)(=O)c1ccc2ccc(N)cc2c1` [Example 38, 2-[(7-Amino-naphthalene-2-sulfonyl)-(3-phenyl-propyl)-amino]-N-hydroxy-3-methyl-butyramide], the half-maximal inhibitory concentration (IC50) was more than 300 nM at Gelatinase (MMP-2) (setting [1]) and 190 nM at Collagenase-3 (MMP-13) (setting [2]).
Consider `CC(C)CCN([C@@H](C(=O)NO)C(C)C)S(=O)(=O)c1ccc2ccccc2c1Cl` [Example 80, 2-[(1-Chloro-naphthalene-2-sulfonyl)-(3-methyl-butyl)-amino]-N-hydroxy-3-methyl-butyramide], for which the IC50 at Gelatinase (MMP-2) (read-out: IC50 (Gelatinase (MMP-2) inhibitory activity)) was 55 nM; at Gelatinase (MMP-2) (setting [1]), 779 nM; at Collagenase-3 (MMP-13) (read-out: IC50 (Collagenase-3 (MMP-13) inhibitory activity)), approximately 113 nM; on Collagenase-3 (MMP-13) (setting [2]), 118 nM.
On to `O=C(NO)[C@H]1CC=CCCN1S(=O)(=O)c1ccc2ccccc2c1` [Example 88, (R)-1-(Naphthalene-2-sulfonyl)-2,3,6,7-tetrahydro-1H-azepine-2-carboxylic acid hydroxyamide], for which the IC50 is 63.5 nM on Gelatinase (MMP-2) (setting [1]) and 16.2 nM at Collagenase-3 (MMP-13) (setting [2]).
Regarding `CC(C)CCN([C@@H](C(=O)NO)C(C)C)S(=O)(=O)c1ccc2ccc(N)cc2c1` [Example 84, 2-[(7-Amino-naphthalene-2-sulfonyl)-(3-methyl-butyl)-amino]-N-hydroxy-3-methyl-butyramide], the results for the IC50 at Gelatinase (MMP-2) (setting [1]) and at Collagenase-3 (MMP-13) (setting [2]) were more than 1000 nM and 52.1 nM, respectively.
On to `O=C(NO)[C@H]1CC=C(c2ccccc2)CN1S(=O)(=O)c1ccc2ccccc2c1` [Example 39, (R)-1-(Naphthalene-2-sulfonyl)-5-phenyl-1,2,3,6-tetrahydro-pyridine-2-carboxylic acid hydroxyamide], for which the IC50 amounted to 27.8 nM at Gelatinase (MMP-2) (setting [1]) and 1.4 nM on Collagenase-3 (MMP-13) (setting [2]).
Turning to `CC(C)[C@H](C(=O)NO)N(CCOc1ccccc1Cl)S(=O)(=O)c1ccc2ccccc2c1` [Example 64, N-(2-(2-chlorophenoxy)ethyl)-N-(naphthalene-2-sulfonyl)-D-valine hydroxamic acid], the IC50 at Gelatinase (MMP-2) (setting [1]) stood at 898 nM; at Collagenase-3 (MMP-13) (setting [2]), 16.1 nM.
Turning to `O=C(NO)[C@H]1CC=CCN1S(=O)(=O)c1ccc2ncccc2c1` [Example 63, (R)-1-(Quinoline-6-sulfonyl)-1,2,3,6-tetrahydro-pyridine-2-carboxylic acid hydroxyamide], the IC50 on Gelatinase (MMP-2) (setting [1]) was determined as 54.7 nM; on Collagenase-3 (MMP-13) (setting [2]) it was 10.5 nM.
On the same counts, the results for `CC(C)[C@H](C(=O)NO)N(CCOc1ccc(F)cc1)S(=O)(=O)c1ccc2ccccc2c1` [Example 41, N-(2-(4-fluorophenoxy)ethyl)-N-(naphthalene-2-sulfonyl)-D-valine hydroxamic acid] are 1130 nM and 38.7 nM.
As to `CC(=O)N(CCC(C)C)c1ccc2ccc(S(=O)(=O)N(CCC(C)C)[C@@H](C(=O)NO)C(C)C)cc2c1` [Example 71, 2-[{7-[Acetyl-(3-methyl-butyl)-amino]-naphthalene-2-sulfonyl}-(3-methyl-butyl)-amino]-N-hydroxy-3-methyl-butyramide], the IC50 on Gelatinase (MMP-2) (setting [1]) and on Collagenase-3 (MMP-13) (setting [2]) was more than 30000 nM each time.
For `CC(C)CCN([C@@H](C(=O)NO)C(C)C)S(=O)(=O)c1ccc2cc(N)ccc2c1` [Example 51, 2-[(6-Amino-naphthalene-2-sulfonyl)-(3-methyl-butyl)-amino]-N-hydroxy-3-methyl-butyramide], the values for the half-maximal inhibitory concentration (IC50) at Gelatinase (MMP-2) (setting [1]) and at Collagenase-3 (MMP-13) (setting [2]) were 1130 nM and 90 nM, respectively.
In the case of `O=C(NO)C1(NS(=O)(=O)c2ccc3ccccc3c2)CCCCC1` [Example 19, 1-(Naphthalene-2-sulfonylamino)-cyclohexanecarboxylic acid hydroxyamide], the values for the IC50 on Gelatinase (MMP-2) (setting [1]) and at Collagenase-3 (MMP-13) (setting [2]) were 451 nM and 727 nM, respectively.
As to `COc1cccc(OCCN([C@@H](C(=O)NO)C(C)C)S(=O)(=O)c2ccc3ccccc3c2)c1` [Example 46, (R)—N-Hydroxy-2-[[2-(3-methoxy-phenoxy)-ethyl]-(naphthalene-2-sulfonyl)-amino]-3-methyl-butyramide], the values for the IC50 on Gelatinase (MMP-2) (setting [1]) and at Collagenase-3 (MMP-13) (setting [2]) were 655 nM and 13.9 nM, respectively.
As to `C#CC[C@H](C(=O)NO)N(CC=C)S(=O)(=O)c1ccc2ccccc2c1` [Example 8, (R)-2-[Allyl-(naphthalene-2-sulfonyl)-amino]-pent-4-ynoic acid hydroxyamide], the figures for the IC50 at Gelatinase (MMP-2) (setting [1]) and on Collagenase-3 (MMP-13) (setting [2]) were 125 nM and 3.5 nM, respectively.
In the case of `O=C(NO)[C@H]1CC=CCN1S(=O)(=O)c1cnc2ccccc2c1` [Example 72, (R)-1-(Quinoline-3-sulfonyl)-1,2,3,6-tetrahydro-pyridine-2-carboxylic acid hydroxyamide], the concentration for half-maximal inhibition (IC50) worked out at 853 nM at Gelatinase (MMP-2) (setting [1]) and 95.7 nM at Collagenase-3 (MMP-13) (setting [2]).
In the case of `C=CCCN([C@H](CC=C)C(=O)NO)S(=O)(=O)c1ccc2ccccc2c1` [Example 4, (R)-2-[But-3-enyl-(naphthalene-2-sulfonyl)-amino]-pent-4-enoic acid hydroxyamide], the concentration for half-maximal inhibition (IC50) at Gelatinase (MMP-2) (setting [1]) is 50.7 nM; on Collagenase-3 (MMP-13) (setting [2]), 0.7 nM.
Consider `C=CCN([C@@H](C(=O)NO)C(C)C)S(=O)(=O)c1ccc2ccccc2c1` [Example 24, (R)-2-[Allyl-(naphthalene-2-sulfonyl)-amino]-N-hydroxy-3-methyl-butyramide], for which the figures for the IC50 on Gelatinase (MMP-2) (setting [1]) and on Collagenase-3 (MMP-13) (setting [2]) were 90.4 nM and 3.4 nM, respectively.
As to `CC(=O)Nc1ccc2ccc(S(=O)(=O)N(CCC(C)C)[C@@H](C(=O)NO)C(C)C)cc2c1` [Example 61, 2-[(7-Acetylamino-naphthalene-2-sulfonyl)-(3-methyl-butyl)-amino]-N-hydroxy-3-methyl-butyramide], the IC50 is 22.8 nM at Gelatinase (MMP-2) (setting [1]) and 0.5 nM on Collagenase-3 (MMP-13) (setting [2]).
Turning to `CC(C)[C@H](C(=O)NO)N(CCOc1ccccc1)S(=O)(=O)c1ccc2ccccc2c1` [Example 30, N-(2-phenoxyethyl)-N-(naphthalene-2-sulfonyl)-D-valine hydroxamic acid], the half-inhibitory concentration (IC50) worked out at 61.2 nM at Gelatinase (MMP-2) (setting [1]) and 2.1 nM at Collagenase-3 (MMP-13) (setting [2]).
Regarding `O=C(NO)[C@H]1C2CCC(CC2)N1S(=O)(=O)c1ccc2ccccc2c1` [Example 91, (R)-2-(Naphthalene-2-sulfonyl)-2-aza-bicyclo[2.2.2]octane-3-carboxylic acid hydroxyamide], the IC50 on Gelatinase (MMP-2) (setting [1]) stood at 22200 nM; at Collagenase-3 (MMP-13) (setting [2]) it was 6950 nM.
The like results for `O=C(NO)[C@H]1[C@@H]2CCCC[C@@H](C2)N1S(=O)(=O)c1ccc2ccccc2c1` [Example 83, 7-(Naphthalene-2-sulfonyl)-7-aza-bicyclo[4.2.1]nonane-8-carboxylic acid hydroxyamide] were, in that order, 770 nM and 135 nM.
On the same counts, the results for `CC(C)(C)[C@@H](NS(=O)(=O)c1ccc2ccccc2c1)C(=O)NO` [Example 93, (R)—N-Hydroxy-3,3-dimethyl-2-(naphthalene-2-sulfonylamino)-butyramide] are 600 nM and 90 nM.
